Reference: US10646538B2, “Self-assembling tripeptides” (ENDO Biologics, Inc., priority 2014, dated 2020)
Entries after “also recorded” stand apart in the source; their conditions may differ. Peptide text beside a SMILES is read from it.

Assays:
Type in all cases: physicochemical
[1] = Aggregation behaviour of tripeptides dissolved in water at pH 7; details: for solubility: water / D2O; for aggregation behavior on dissolving in water: water at pH 7, 30 mmol/L
Protocol: Tripeptides were dissolved in water by sonication and vortexing, followed by bringing the pH to 7.2±0.1 by dropwise addition of 0.25 M NaOH solution to a final concentration of 30 mmol/L. These were diluted to 10 mmol/L for DLS and NMR experiments. Note that the KYF gel could also be prepared by direct dissolution into a 0.1 M phosphate buffer at pH 7. Characterization of the resulting samples took places at least 24 hours after sample preparation. Samples for FTIR and NMR analysis were prepared using D2O (99.9% D) and NaOD solution instead of H2O and NaOH.
The bottom half of Table 2 contains the tripeptides that were selected for synthesis and experimental characterization. The selection was made to include a wide range of AP and APH scores, including PFF (#1 from AP score) and KFD (#1 from APH score) and peptides that adhere to one or more of our design rules formulated above, such as KYF. […] These peptides were dissolved in water at pH 7 and their aggregation behavior was studied in order to test the predictive value of our method.

[2] = Diffusion Ordered NMR spectroscopy (DOSY); details: 10 mM in D2O, pH 7, 298 K
From the text: DOSY spectra were acquired at 600 MHz using a Bruker Avance 600 spectrometer using the Bruker microprogram dstebpgp3sat at 298 K. The eddy current delay (Te) was set to 5 ms. The diffusion time was adjusted to 100 ms. […] The pulse gradient was increased from 2 to 95% of the maximum gradient strength using a linear ramp 16 k data points in the F2 dimension (20 ppm) and 16 data points in the F1 dimension were collected. […] This method is able to determine the diffusion coefficient D of supramolecular aggregates and therefore their relative size, as described by the Stokes-Einstein equation.^43,44 Diffusion constants for all the studied tripeptides can be found in Table 2. […] For the remaining peptides, DOSY results are in good agreement with the predicted aggregation propensity at 50 ns.

[3] = FTIR spectroscopy, amide I region; details: 30 mM in D2O at pH 7
Protocol: Samples were contained in a standard IR transmission cell (Harrick Scientific) between two 2 mm CaF2 windows, separated by a polytetrafluoroethylene (PFTE) spacer of 50 μm thickness. Spectra were recorded on a Bruker Vertex 70 spectrometer by averaging 25 scans at a spectral resolution of 1 cm^−1. Spectra were corrected for absorption from a phosphate buffer blank sample and absorptions from trifluoroacetic acid (TFA).
The secondary structure of the peptides can be probed by infrared (IR) spectroscopy.^45,46 When aggregation takes place via intermolecular hydrogen bonding of the amide groups, the 1650-1655 cm^−1 absorption observed for free peptides in solution typically narrows and shifts to lower frequency, while the 1595 cm^−1 peak, assigned to carboxylate groups, broadens or decreases in intensity due to protonation or salt bridge formation. […] Note that small absorption maxima in the 1670-1685 cm^−1 region are assigned to residual trifluoro-acetic acid absorption and the 1570-1580 cm^−1 band for KFD is assigned to the aspartic acid side chain carboxylate group.
For KYF, a dramatic change in the amide region was noticed upon gelation with intense IR absorption peaks at 1621 and 1649 cm^−1 for the amide groups and 1568 cm^−1 for salt-bridged carboxylate groups.

[4] = TEM of tripeptide samples; details: samples at pH 7
Protocol: Carbon-coated copper grids (200 mesh) were glow discharged in air for 30 s. The support film was touched onto the gel surface for 3 s and blotted down using filter paper. Negative stain ([…], 1% aqueous methylamine vanadate (Nanovan; Nanoprobes) was applied and the mixture was blotted again using filter paper to remove excess. The dried specimens were then imaged using a LEO 912 energy filtering transmission electron microscope operating at 120 kV fitted with 14 bit/2 K Proscan CCD camera

[5] = Dynamic light scattering (DLS); details: 10 mM at pH 7, 25° C.
Protocol: The dynamic light scattering (DLS) measurements were carried out on 10 mmol/L peptide solutions (i.e. below the critical gelation concentration) by using a 3 DDLS spectrophotometer (LS instruments, Fribourg, Switzerland) using vertically polarized He—Ne laser light (25 mW with wavelength of 632.8 nm) with an avalanche photodiode detector at an angle of 90° at 25° C. Intensity autocorrelation functions were recorded and analyzed by means of the cumulant method in order to determine the intensity weighted diffusion coefficients D and the average hydrodynamic radius Rh by using the Stokes-Einstein equation, Rh=kBT/6πηD, where kB is the Boltzmann constant, T is the absolute temperature and η is the solvent viscosity at the given temperature.
To further confirm the presence (and size) of the peptide aggregates formed, dynamic light scattering (DLS) experiments were performed on the KYF gel, PFF suspension and KFD and GGG solutions.

[6] = pH dependence of the gelation of KYF
Protocol: We investigated the effects of pH on the gelation of the tripeptide KYF in aqueous solvent. […] The alteration of the pH will affect the protonation state of the ionisable groups on KYF i.e., N and C termini and the lysine side groups.
pH measurements were carried out ranging from pH 5 to 8. At each pH measurement an image was taken to show the gelation behaviour. The pH was altered using 0.5M NaOH which is added drop wise into the vial, vortexed to ensure a complete mix then the pH is measured until a stable value is obtained.
Initially, the peptide sample is dissolve in water and the pH is recorded. At this point the pH is below the pKa of the C-terminus therefore the terminal acid is protonated and gelation should not occur, which is what was observed.

In the case of `CC[C@H](C)[C@H](NC(=O)[C@H](Cc1ccc(O)cc1)NC(=O)[C@@H](N)Cc1ccccc1)C(=O)O` [FYI] (H-Phe-Tyr-Ile-OH), the solubility [1] is reported as “poor solubility” and the “aggregation behavior on dissolving in water” value (shortened to “aggregation behavior”) [1] is reported as “precipitated”.
With `NCCCC[C@H](N)C(=O)N[C@@H](Cc1ccccc1)C(=O)N[C@@H](CC(=O)O)C(=O)O` [KFD] (H-Lys-Phe-Asp-OH) the “diffusion constant (DOSY)” value [2] was “intermediate diffusion rate”, the “secondary structure from amide I IR absorption” value (“secondary structure” below) [3] was “no extended secondary structure formation” and the “nanostructure seen by TEM” value [4] was “strongly curved fibers together with more amorphous regions”. The “average hydrodynamic radius / relative size of the aggregates (DLS)” value [5] was 0.13 μm.
With `NCC(=O)NCC(=O)NCC(=O)O` [GGG, reference compound] (H-Gly-Gly-Gly-OH) the “diffusion constant (DOSY)” value [2] was “highest diffusion constant” and the “average hydrodynamic radius / relative size of the aggregates (DLS)” value [5] was 0.10 μm.
For `O=C(O)[C@H](Cc1ccccc1)NC(=O)[C@H](Cc1ccccc1)NC(=O)[C@@H]1CCCN1` [PFF] (H-Pro-Phe-Phe-OH), the “secondary structure” value [3] was “β-sheet like arrangement of the amide groups”, the “nanostructure seen by TEM” value [4] was “short crystalline nanostructures with a large aspect ratio” and the solubility [1] was “poor solubility; also recorded: low solubility”. For the same molecule, the “aggregation behavior” value [1] was “suspensions” and the “average hydrodynamic radius / relative size of the aggregates (DLS)” value [5] was 0.70 μm.
For `N[C@@H](CO)C(=O)N[C@@H](Cc1ccc(O)cc1)C(=O)N[C@@H](Cc1ccccc1)C(=O)O` [SYF] (H-Ser-Tyr-Phe-OH), the solubility [1] was “insoluble in water”.
For `N[C@@H](Cc1ccccc1)C(=O)N[C@@H](Cc1c[nH]cn1)C(=O)N[C@@H](Cc1ccccc1)C(=O)O` [FHF] (H-Phe-His-Phe-OH), the solubility [1] was “poor solubility” and the “aggregation behavior” value [1] was “suspensions”.
With `N=C(N)NCCC[C@H](N)C(=O)N[C@@H](Cc1ccc(O)cc1)C(=O)N[C@@H](Cc1ccccc1)C(=O)O` [RYF] (H-Arg-Tyr-Phe-OH) the “aggregation behavior” value [1] was “did not give a gel”.
With `CC[C@H](C)[C@H](N)C(=O)N[C@@H](Cc1ccc(O)cc1)C(=O)N[C@@H](Cc1ccccc1)C(=O)O` [IYF] (H-Ile-Tyr-Phe-OH) the solubility [1] was “poor solubility” and the “aggregation behavior” value [1] was “precipitated”.
With `NCCCC[C@H](N)C(=O)N[C@@H](Cc1ccc(O)cc1)C(=O)N[C@@H](Cc1ccccc1)C(=O)O` [KYF] (H-Lys-Tyr-Phe-OH) the “diffusion constant (DOSY)” value [2] was “lowest diffusion constant”, the “secondary structure” value [3] was “well-ordered peptide nanostructure” and the “pH of critical gelation” value ([6]; aqueous, pH raised with 0.5M NaOH) was 6.9-7.05. For the same molecule, the gelation behaviour ([6]; pH 2.21 to 6.7, aqueous) was “remained as a clear solution”, the gelation behaviour ([6]; pH 6.9, aqueous) was “weak gel” and the gelation behaviour ([6]; pH 7.05, aqueous) was “self-supporting hydrogel”. For the same molecule, the gelation behaviour ([6]; pH 7.05 until 7.98, aqueous) was “stronger gels”, the “nanostructure seen by TEM” value [4] was “entangled fibrous network” and the “aggregation behavior” value [1] was “translucent self-supporting hydrogel”. The “average hydrodynamic radius / relative size of the aggregates (DLS)” value [5] was 0.26 μm.
